Data published in patent publication US20240139221A1, “TREATMENT OF HPV-INDUCED NEOPLASIA” (priority 2022, published 2024).

Experiments:
[1] = Approximate solubility in solvents at 25° C. and 50° C., visual observation; type: physicochemical
Description: The maximum volume of each solvent added was 1 mL. Approximate solubility was determined by visual observation.
Maximum volume of each solvent added was 1 mL. Approximate solubility was determined by visual observation.

[2] = Solubility in buffers, water and simulated vaginal fluid at 37° C.; conditions: for pH of solution at 2 hrs: 37° C.; for solubility at 0.5 h / solubility at 2 h: 37 °C, thermodynamic from solid
Description: About 4 mg of Compound I Pattern 1 was added into 2 mL of buffer solution.
(§1) Solubility was tested in five media, pH 3.0 citrate buffer, pH 4.5 acetate buffer, pH 6.8 phosphate buffer, water, simulated vaginal fluid (pH 4.2) at 37° C. for 0.5 h and 2 h.
The salt amount used is equivalent to 10 mg anhydrous free base. […] The obtained clear solutions were analyzed by pH meter for pH, and solubility was determined by observation.
as §1

[3] = Hygroscopicity by DVS at 25° C.; type: physicochemical; conditions: DVS 25° C.; for D. (%) Cycle 1: Desorption cycle 1; for D. (%) Cycle 2: Desorption cycle 2; for S. (%) Cycle 1: Sorption cycle 1; for S. (%) Cycle 2: Sorption cycle 2
Description: Hygroscopicity was investigated by DVS at 25° C., using the following method: […]

[4] = Tablet stability study (purity by HPLC); type: physicochemical
Description: Tablets were prepared using the excipients and excipient ratios shown in the first column of the following tables. The tablets were then stored under the conditions indicated and periodically sampled and tested for purity by HPLC.

[5] = Bulk stability (accelerated stability, one week; HPLC and XRPD)
Description: Bulk stability: Accelerated stability experiments were conducted at 25° C./92% RH and 40° C./75% RH in an open container, 60° C. in a tight container for one week.
Samples were characterized by XRPD and HPLC and inspected for color change.
Accelerated stability experiments were conducted at 25° C./92% RH in an open container, at 40° C./75% RH in an open container, and at 60° C. in a tight container for one week.

[6] = acetate buffer, pH 4.5, aqueous buffer
[7] = citrate buffer, pH 3, aqueous buffer
[8] = phosphate buffer, pH 6.8, aqueous buffer
[9] = simulated vaginal fluid, pH 4.2, fassgf or other biorelevant
[10] = excipients Carbomer (49%) + Hydrated Dextrose (49%)
[11] = excipients Carbomer (49%) + Mannitol (49%)
[12] = excipients PC (49%) + Anhydrous Lactose (49%)
[13] = excipients PC (49%) + MCC (49%)
[14] = 25° C., 92% RH, open container, one week
[15] = 40° C., 75% RH, open container, one week
[16] = 60° C., tight container, one week

CCOC(=O)[C@H](C)NP(=O)(COCCn1cnc2c(OC)nc(N)nc21)OCc1ccccc1 (stereo partly drawn) [Compound I, ethyl(((2-(2-amino-6-methoxy-9H-purin-9-yl)ethoxy)methyl)(benzyloxy)-phosphoryl)-L-alaninate]
Solubility (mg/mL) 25° C. ([1]; Acetone): >100 mg/mL
Solubility (mg/mL) 50° C. ([1]; Acetone): >500 mg/mL
Solubility (mg/mL) 25° C. ([1]; Acetonitrile): >100 mg/mL
Solubility (mg/mL) 50° C. ([1]; Acetonitrile): >500 mg/mL
Solubility (mg/mL) 25° C. ([1]; Dichloromethane): >100 mg/mL
Solubility (mg/mL) 50° C. ([1]; Dichloromethane): >500 mg/mL
Solubility (mg/mL) 25° C. ([1]; Ethanol): >100 mg/mL
Solubility (mg/mL) 50° C. ([1]; Ethanol): >500 mg/mL
Solubility (mg/mL) 25° C. ([1]; Ethyl acetate (EA)): >100 mg/mL
Solubility (mg/mL) 50° C. ([1]; Ethyl acetate (EA)): >500 mg/mL
Solubility (mg/mL) 25° C. ([1]; Heptanes): <2 mg/mL
Solubility (mg/mL) 50° C. ([1]; Heptanes): <10 mg/mL
Solubility (mg/mL) 25° C. ([1]; Isopropanol (IPA)): >100 mg/mL
Solubility (mg/mL) 50° C. ([1]; Isopropanol (IPA)): >500 mg/mL
Solubility (mg/mL) 25° C. ([1]; Isopropyl acetate): >100 mg/mL
Solubility (mg/mL) 50° C. ([1]; Isopropyl acetate): >500 mg/mL
Solubility (mg/mL) 25° C. ([1]; Methanol): >100 mg/mL
Solubility (mg/mL) 50° C. ([1]; Methanol): >500 mg/mL
Solubility (mg/mL) 25° C. ([1]; Methyl ethyl ketone): >100 mg/mL
Solubility (mg/mL) 50° C. ([1]; Methyl ethyl ketone): >500 mg/mL
Solubility (mg/mL) 25° C. ([1]; Methyl t-butyl ether (MTBE)): <2 mg/mL
Solubility (mg/mL) 50° C. ([1]; Methyl t-butyl ether (MTBE)): <10 mg/mL
Solubility (mg/mL) 25° C. ([1]; Tetrahydrofuran): >100 mg/mL
Solubility (mg/mL) 50° C. ([1]; Tetrahydrofuran): 167 to 250 mg/mL
Solubility (mg/mL) 25° C. ([1]; Water): 20 to 25 mg/mL
Solubility (mg/mL) 50° C. ([1]; Water): 25 to 27 mg/mL
pH of solution at 2 hrs ([2]; Simulated vaginal fluid (pH adjusted with 0.2N NaOH)): (5.53)
pH of solution at 2 hrs ([2]; Water): (7.55)
solubility at 0.5 h [2, 6]: > 2 mg/mL
solubility at 2 h [2, 6]: > 2 mg/mL
solubility at 0.5 h [2, 7]: > 2 mg/mL
solubility at 2 h [2, 7]: > 2 mg/mL
pH of solution at 2 hrs ([2]; pH 3.0 100 mM citrate buffer): (2.98)
pH of solution at 2 hrs ([2]; pH 4.5 50 mM acetate buffer): (4.50)
pH of solution at 2 hrs ([2]; pH 6.8 50 mM phosphate buffer): (6.81)
solubility at 0.5 h [2, 8]: > 2 mg/mL
solubility at 2 h [2, 8]: > 2 mg/mL
solubility at 0.5 h [2, 9]: > 2 mg/mL
solubility at 2 h [2, 9]: > 2 mg/mL
solubility at 0.5 h ([2]; water): > 2 mg/mL
solubility at 2 h ([2]; water): > 2 mg/mL
D. (%) Cycle 1 ([3]; 0% RH): 0.00%
D. (%) Cycle 1 ([3]; 10% RH): 0.11%
D. (%) Cycle 1 ([3]; 20% RH): 0.23%
D. (%) Cycle 1 ([3]; 30% RH): 0.47%
D. (%) Cycle 1 ([3]; 40% RH): 0.60%
D. (%) Cycle 2 ([3]; 0% RH): 0.19%
D. (%) Cycle 2 ([3]; 10% RH): 0.37%
D. (%) Cycle 2 ([3]; 20% RH): 0.57%
D. (%) Cycle 2 ([3]; 30% RH): 0.83%
D. (%) Cycle 2 ([3]; 40% RH): 1.09%
D. (%) Cycle 2 ([3]; 50% RH): 1.48%
D. (%) Cycle 2 ([3]; 60% RH): 1.96%
D. (%) Cycle 2 ([3]; 70% RH): 2.78%
D. (%) Cycle 2 ([3]; 80% RH): 4.33%
D. (%) Cycle 2 ([3]; 90% RH): 9.10%
D. (%) Cycle 2 ([3]; 95% RH): 14.32%
S. (%) Cycle 1 ([3]; 0% RH): 0.00%
S. (%) Cycle 1 ([3]; 10% RH): 0.08%
S. (%) Cycle 1 ([3]; 20% RH): 0.17%
S. (%) Cycle 1 ([3]; 30% RH): 0.28%
S. (%) Cycle 1 ([3]; 40% RH): 0.41%
S. (%) Cycle 1 ([3]; 50% RH): 0.61%
S. (%) Cycle 1 ([3]; 60% RH): 0.85%
S. (%) Cycle 1 ([3]; 70% RH): 1.14%
S. (%) Cycle 1 ([3]; 80% RH): 1.64%
S. (%) Cycle 1 ([3]; 90% RH): 4.27%
S. (%) Cycle 1 ([3]; 95% RH): 14.32%
S. (%) Cycle 2 ([3]; 0% RH): 0.19%
S. (%) Cycle 2 ([3]; 10% RH): 0.22%
S. (%) Cycle 2 ([3]; 20% RH): 0.30%
S. (%) Cycle 2 ([3]; 30% RH): 0.44%
S. (%) Cycle 2 ([3]; 40% RH): 0.62%
purity by HPLC, 0 months [4, 10]: 99.52
purity by HPLC, 1 month 25 C./60% RH [4, 10]: 82.44
purity by HPLC, 1 month 40 C./75% RH [4, 10]: 0.17
purity by HPLC, 0 months [4, 11]: 98.87
purity by HPLC, 1 month 25 C./60% RH [4, 11]: 91.54
purity by HPLC, 1 month 40 C./75% RH [4, 11]: 6.75
purity by HPLC, 0 months [4, 12]: 99.40
purity by HPLC, 1 month 25 C./60% RH [4, 12]: 95.98
purity by HPLC, 1 month 40 C./75% RH [4, 12]: 41.3
purity by HPLC, 0 months [4, 13]: 98.64
purity by HPLC, 1 month 25 C./60% RH [4, 13]: 97.16
purity by HPLC, 1 month 40 C./75% RH [4, 13]: 46.11
XRPD after storage ([5]; 25° C., 84% RH, open container, 2 days): No change
HPLC (purity) after storage [5, 14]: 98.5%
XRPD after storage [5, 14]: No change
HPLC (purity) after storage [5, 15]: 95.2%
XRPD after storage [5, 15]: No change
HPLC (purity) after storage [5, 16]: 98.5%
XRPD after storage [5, 16]: No change
HPLC (purity), Initial ([5]; initial, before storage): 98.7%
